Columns and labels:
Assay type in all cases: cell-based, Pseudomonas aeruginosa
[1] = test system: qsc100 (Peptide synthetase); experiment: Acyl-HSL induction of β-galactosidase in qsc100 mutant; conditions: qsc100, Class I; 3OC12-HSL 2 μM, C4-HSL 5 μM
[2] = test system: qsc101; experiment: Acyl-HSL induction of β-galactosidase in qsc101 mutant; conditions: qsc101, Class I; 3OC12-HSL 2 μM, C4-HSL 5 μM
[3] = test system: qsc103; experiment: Acyl-HSL induction of β-galactosidase in qsc103 mutant; conditions: qsc103, Class I; 3OC12-HSL 2 μM, C4-HSL 5 μM
[4] = test system: qsc107; experiment: Acyl-HSL induction of β-galactosidase in qsc107 mutant; conditions: qsc107, Class I; 3OC12-HSL 2 μM, C4-HSL 5 μM
[5] = test system: qsc109 (Bacitracin synthetase 3); experiment: Acyl-HSL induction of β-galactosidase in qsc109 mutant; conditions: qsc109, Class II; 3OC12-HSL 2 μM, C4-HSL 5 μM
[6] = test system: qsc110A&B (Pyoverdine synthetase D); experiment: Acyl-HSL induction of β-galactosidase in qsc110A&B mutants; conditions: Class II, 3OC12-HSL 2 μM, C4-HSL 5 μM
[7] = test system: qsc111 (Pyoverdine synthetase D); experiment: Acyl-HSL induction of β-galactosidase in qsc111 mutant; conditions: qsc111, Class II; 3OC12-HSL 2 μM, C4-HSL 5 μM
[8] = test system: qsc112A&B (Aculeacin A acylase); experiment: Acyl-HSL induction of β-galactosidase in qsc112A&B mutants; conditions: Class II, 3OC12-HSL 2 μM, C4-HSL 5 μM
[9] = test system: qsc115; experiment: Acyl-HSL induction of β-galactosidase in qsc115 mutant; conditions: qsc115, Class II; 3OC12-HSL 2 μM, C4-HSL 5 μM
[10] = test system: qsc116; experiment: Acyl-HSL induction of β-galactosidase in qsc116 mutant; conditions: qsc116, Class II; 3OC12-HSL 2 μM, C4-HSL 5 μM
[11] = test system: qsc118 (RhlI); experiment: Acyl-HSL induction of β-galactosidase in qsc118 mutant; conditions: qsc118, Class III; 3OC12-HSL 2 μM, C4-HSL 5 μM
[12] = test system: qsc119 (RhlB); experiment: Acyl-HSL induction of β-galactosidase in qsc119 mutant; conditions: qsc119, Class III; 3OC12-HSL 2 μM, C4-HSL 5 μM
[13] = test system: qsc120 (Chloramphenicol resistance); experiment: Acyl-HSL induction of β-galactosidase in qsc120 mutant; conditions: qsc120, Class III; 3OC12-HSL 2 μM, C4-HSL 5 μM
[14] = test system: qsc124A&B (Pyoverdine synthetase D); experiment: Acyl-HSL induction of β-galactosidase in qsc124A&B mutants; conditions: Class III, 3OC12-HSL 2 μM, C4-HSL 5 μM
[15] = test system: qsc125 (Zeaxanthin synthesis); experiment: Acyl-HSL induction of β-galactosidase in qsc125 mutant; conditions: qsc125, Class III; 3OC12-HSL 2 μM, C4-HSL 5 μM
[16] = test system: qsc126 (Pristanimycin I synthase 3 & 4); experiment: Acyl-HSL induction of β-galactosidase in qsc126 mutant; conditions: qsc126, Class III; 3OC12-HSL 2 μM, C4-HSL 5 μM
[17] = test system: qsc127; experiment: Acyl-HSL induction of β-galactosidase in qsc127 mutant; conditions: qsc127, Class III; 3OC12-HSL 2 μM, C4-HSL 5 μM
[18] = test system: qsc129A&B (Cellulose binding protein p40); experiment: Acyl-HSL induction of β-galactosidase in qsc129A&B mutants; conditions: Class III, 3OC12-HSL 2 μM, C4-HSL 5 μM
[19] = test system: qsc130 (glc operon transcriptional activator); experiment: Acyl-HSL induction of β-galactosidase in qsc130 mutant; conditions: qsc130, Class III; 3OC12-HSL 2 μM, C4-HSL 5 μM
[20] = test system: qsc131 (PhzC); experiment: Acyl-HSL induction of β-galactosidase in qsc131 mutant; conditions: qsc131, Class III; 3OC12-HSL 2 μM, C4-HSL 5 μM
[21] = test system: qsc132A&B (Unknown (B. pertusis)); experiment: Acyl-HSL induction of β-galactosidase in qsc132A&B mutants; conditions: Class IV, 3OC12-HSL 2 μM, C4-HSL 5 μM
[22] = test system: qsc133A&B (AcrB); experiment: Acyl-HSL induction of β-galactosidase in qsc133A&B mutants; conditions: Class IV, 3OC12-HSL 2 μM, C4-HSL 5 μM
[23] = test system: qsc134 (Saframycin Mx1 synthetase A); experiment: Acyl-HSL induction of β-galactosidase in qsc134 mutant; conditions: qsc134, Class IV; 3OC12-HSL 2 μM, C4-HSL 5 μM
[24] = test system: qtc136; experiment: Acyl-HSL induction of β-galactosidase in qtc136 mutant; conditions: qtc136, Class IV; 3OC12-HSL 2 μM, C4-HSL 5 μM
[25] = test system: qsc137 (Asparagine synthetase); experiment: Acyl-HSL induction of β-galactosidase in qsc137 mutant; conditions: qsc137, Class IV; 3OC12-HSL 2 μM, C4-HSL 5 μM
[26] = test system: quorum sensing signaling (Las system), QSC102 lacZ; experiment: Two-strain (PAO1 / QSC102) screening assay for quorum sensing inhibiting compounds; conditions: β-galactosidase / blue color on X-gal
Procedure: In this example, the screening assay used two strains of P. aeruginosa: a wild type P. aeruginosa (PAO1) and QSC102, from Example 1 (see FIG. 8). This assay will detect inhibition of all aspects of quorum sensing signaling, e.g., signal generation and signal reception.
Microtiter plates are prepared by adding 200 μL Luria Broth (“LB”) agar, containing 0.008% 5-bromo-4-chloro-3-indolyl-β-D-galactose (X-gal) to each well. Overnight cultures of PAO1 and QSC102 are subcultured in LB to a starting absorbance at 600 nm (“A600”) of 0.05 and grown at 37° C to an A600 of 1.0. PAO1 is diluted 2.5×10^5-fold in LB and 5 μL of this is applied to the surface of the LB agar in each well. Plates are then dried in a laminar flow hood for 60 minutes. A tenfold dilution of QSC102 in LB is used to inoculate each well using a replicator. Plates are then sealed and incubated at 37° C for 40 hours. Growth and color development are evaluated visually and the data is recorded with a camera.
The test compound was present in a microtiter well and overlaid with LB agar and 5-bromo-4-chloro-3-indolyl-β-D-galactose (X-gal). Both strains were spotted on the agar in each well. […] Inhibition of signaling was evaluated qualitatively by the absence or weakening of the blue color development.

## CCCCCCCCCC(=O)CC(=O)N[C@H]1CCOC1=O [3OC12-HSL, N-(3-oxododecanoyl) homoserine lactone]
[1]
  Signal response (β-galactosidase activity with signal(s) divided by activity without added signals), maximum: 65
[2]
  Signal response (β-galactosidase activity with signal(s) divided by activity without added signals), maximum: 145
[3]
  Signal response (β-galactosidase activity with signal(s) divided by activity without added signals), maximum: 85
[4]
  Signal response (β-galactosidase activity with signal(s) divided by activity without added signals), maximum: 44
[5]
  Signal response (β-galactosidase activity with signal(s) divided by activity without added signals), maximum: 13
[6]
  Signal response (β-galactosidase activity with signal(s) divided by activity without added signals), maximum: 10
[7]
  Signal response (β-galactosidase activity with signal(s) divided by activity without added signals), maximum: 11
[8]
  Signal response (β-galactosidase activity with signal(s) divided by activity without added signals), maximum: 15
[9]
  Signal response (β-galactosidase activity with signal(s) divided by activity without added signals), maximum: 4
[10]
  Signal response (β-galactosidase activity with signal(s) divided by activity without added signals), maximum: 5
[11]
  Signal response (β-galactosidase activity with signal(s) divided by activity without added signals), maximum: 38
[12]
  Signal response (β-galactosidase activity with signal(s) divided by activity without added signals), maximum: 9
[13]
  Signal response (β-galactosidase activity with signal(s) divided by activity without added signals), maximum: 3
[14]
  Signal response (β-galactosidase activity with signal(s) divided by activity without added signals), maximum: 35
[15]
  Signal response (β-galactosidase activity with signal(s) divided by activity without added signals), maximum: 20
[16]
  Signal response (β-galactosidase activity with signal(s) divided by activity without added signals), maximum: 3
[17]
  Signal response (β-galactosidase activity with signal(s) divided by activity without added signals), maximum: 5
[18]
  Signal response (β-galactosidase activity with signal(s) divided by activity without added signals), maximum: 15
[19]
  Signal response (β-galactosidase activity with signal(s) divided by activity without added signals), maximum: 5
[20]
  Signal response (β-galactosidase activity with signal(s) divided by activity without added signals), maximum: 50
[21]
  Signal response (β-galactosidase activity with signal(s) divided by activity without added signals), maximum: 1
[22]
  Signal response (β-galactosidase activity with signal(s) divided by activity without added signals), maximum: 1
[23]
  Signal response (β-galactosidase activity with signal(s) divided by activity without added signals), maximum: 6
[24]
  Signal response (β-galactosidase activity with signal(s) divided by activity without added signals), maximum: 7
[25]
  Signal response (β-galactosidase activity with signal(s) divided by activity without added signals), maximum: 1
[26]
  Response of the QSC102 lacZ fusion to the signal: responded by turning blue

## CCCC(=O)N[C@H]1CCOC1=O [C4-HSL, butanoyl-HSL]
[1]
  Signal response (β-galactosidase activity with signal(s) divided by activity without added signals), maximum: 3
[2]
  Signal response (β-galactosidase activity with signal(s) divided by activity without added signals), maximum: 1
[3]
  Signal response (β-galactosidase activity with signal(s) divided by activity without added signals), maximum: 1
[4]
  Signal response (β-galactosidase activity with signal(s) divided by activity without added signals), maximum: 2
[5]
  Signal response (β-galactosidase activity with signal(s) divided by activity without added signals), maximum: 1
[6]
  Signal response (β-galactosidase activity with signal(s) divided by activity without added signals), maximum: 1
[7]
  Signal response (β-galactosidase activity with signal(s) divided by activity without added signals), maximum: 1
[8]
  Signal response (β-galactosidase activity with signal(s) divided by activity without added signals), maximum: 1
[9]
  Signal response (β-galactosidase activity with signal(s) divided by activity without added signals), maximum: 1
[10]
  Signal response (β-galactosidase activity with signal(s) divided by activity without added signals), maximum: 1
[11]
  Signal response (β-galactosidase activity with signal(s) divided by activity without added signals), maximum: 14
[12]
  Signal response (β-galactosidase activity with signal(s) divided by activity without added signals), maximum: 7
[13]
  Signal response (β-galactosidase activity with signal(s) divided by activity without added signals), maximum: 7
[14]
  Signal response (β-galactosidase activity with signal(s) divided by activity without added signals), maximum: 50
[15]
  Signal response (β-galactosidase activity with signal(s) divided by activity without added signals), maximum: 65
[16]
  Signal response (β-galactosidase activity with signal(s) divided by activity without added signals), maximum: 5
[17]
  Signal response (β-galactosidase activity with signal(s) divided by activity without added signals), maximum: 2
[18]
  Signal response (β-galactosidase activity with signal(s) divided by activity without added signals), maximum: 1
[19]
  Signal response (β-galactosidase activity with signal(s) divided by activity without added signals), maximum: 1
[20]
  Signal response (β-galactosidase activity with signal(s) divided by activity without added signals), maximum: 168
[21]
  Signal response (β-galactosidase activity with signal(s) divided by activity without added signals), maximum: 1
[22]
  Signal response (β-galactosidase activity with signal(s) divided by activity without added signals), maximum: 1
[23]
  Signal response (β-galactosidase activity with signal(s) divided by activity without added signals), maximum: 1
[24]
  Signal response (β-galactosidase activity with signal(s) divided by activity without added signals), maximum: 3
[25]
  Signal response (β-galactosidase activity with signal(s) divided by activity without added signals), maximum: 1
[26]
  Response of the QSC102 lacZ fusion to the signal: did not respond

Source: patent US6855513B1 (priority 1999, dated 2005)
